Literature values, collected in US20150328215A1, “STABLE AMORPHOUS RALTEGRAVIR POTASSIUM PREMIX AND PROCESS FOR THE PREPARATION THEREOF” (priority 2012, published 2015).

What was measured:
[1] = in vivo
[2] = water

Structure (SMILES) | bioavailability compared with Raltegravir free base [1] | aqueous solubility [2]
Cc1nnc(C(=O)NC(C)(C)c2nc(C(=O)NCc3ccc(F)cc3)c([O-])c(=O)n2C)o1.[K+] [Form 1] | superior bioavailability | 
Cc1nnc(C(=O)NC(C)(C)c2nc(C(=O)NCc3ccc(F)cc3)c(O)c(=O)n2C)o1 [Raltegravir] |  | poor aqueous solubility
Cc1nnc(C(=O)NC(C)(C)c2nc(C(=O)NCc3ccc(F)cc3)c([O-])c(=O)n2C)o1.[K+] [potassium salt of Raltegravir, potassium N-(4-fluorobenzyl)-5-hydroxy-1-methyl-2-(1-methyl-1-{[(5-methyl-1,3,4-oxadiazol-2-yl)carbonyl]amino}ethyl)-6-oxo-1,6-dihydropyrimidine-4-carboxamide] |  | significantly more soluble in water
